What is called IC50 is the concentration that gives 50% inhibition. What is called inhibition is how much of the control response was suppressed. The term % Inhibition denotes the change of the read-out against control, counted positive when it falls.

Assay [1] addresses T1, oxytocin receptors (Rattus norvegicus, UniProt P70536).
T1 construct: The uteri are dissected out, cleaned of fat and connective tissues; from tissue; host or cells: uterus of DES-treated female Sprague-Dawley rats
T1 sequence (P70536 1-388): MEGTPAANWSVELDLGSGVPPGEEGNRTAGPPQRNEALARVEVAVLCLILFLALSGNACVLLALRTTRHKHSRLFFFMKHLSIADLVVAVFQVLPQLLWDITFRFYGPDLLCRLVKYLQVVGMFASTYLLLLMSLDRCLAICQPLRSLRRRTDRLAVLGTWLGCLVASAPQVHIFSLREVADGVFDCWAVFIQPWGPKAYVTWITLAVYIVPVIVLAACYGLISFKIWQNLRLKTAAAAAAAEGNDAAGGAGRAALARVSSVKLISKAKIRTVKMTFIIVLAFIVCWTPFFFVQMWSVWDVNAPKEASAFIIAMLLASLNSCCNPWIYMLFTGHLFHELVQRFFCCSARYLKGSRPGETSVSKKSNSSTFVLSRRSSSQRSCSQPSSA
Kind of assay: Oxytocin Receptor Binding. The following applies: for IC50: 1.0 nM [3H]oxytocin; for inhibition at 10 µM: [3H]oxytocin. Summed up: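 IC50 is the concentration displacing 50% of 1.0 nM [3H]OT, incubated 60 min at 22 °C in pH 7.4 Tris/MgCl2 buffer plus protease inhibitors, then filtered. Receptor source: uterine membranes from rats given 0.3 mg/kg DES i.m. 18 h earlier. 1.0 uM cold OT defined non-specific binding.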

Assay [2] deals with Vasopressin V1. Nature of the assay: Vasopressin V1 Antagonist Activity in Conscious Rats (vasopressin vasopressor response). In kind it is in vivo, rat. On the set-up: Average Change: unit not given here. The following applies: for % Inhibition / Average Change: SHR. A digest of the protocol: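 Conscious rats are restrained supine, and under local 2% procaine a PE 10/20 cannula is passed through the ventral caudal tail artery into the lower abdominal aorta. The caudal vein is cannulated for intravenous dosing. Blood pressure is recorded with a Statham P23Db transducer, and vasopressin injections are repeated after compound dosing. Percent antagonism is calculated against the pre-drug vasopressor response taken as 100%.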

Assay [3] has as its system Vasopressin V2. Kind of assay: Vasopressin V2 Antagonist Activity in Conscious Hydrated Rats. In kind it is in vivo, rat. The following applies: AVP 0.4 μg/kg i.p. A digest of the protocol:
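Four-hour urine output, osmolality and electrolytes (Na+, K+, Cl−) recorded in water-loaded rats (30 mL/kg deionized water orally) given AVP i.p. at 0.4 μg/kg. Test compounds were given orally at 0.1–100 mg/kg 1 h before AVP; 2–4 rats per compound.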

Setting [4] is: 10 mg/kg p.o., VAS 0.01 i.u./kg, 30 min.
Setting [5] is: 10 mg/kg p.o., VAS 0.01 i.u./kg, 60 min.
Where [6] appears, read: 10 mg/kg p.o., VAS 0.01 i.u./kg, 90 min.
[7] abbreviates: 10 mg/kg p.o., VAS 0.01 i.u./kg, 120 min.
Setting [8] is: 10 mg/kg p.o., VAS 0.01 i.u./kg, 180 min.
Where [9] appears, read: 10 mg/kg p.o., VAS 0.01 i.u./kg, 240 min.
Setting [10] is: 10 mg/kg p.o., VAS 0.02 i.u./kg, 30 min.
Where [11] appears, read: 10 mg/kg p.o., VAS 0.02 i.u./kg, 60 min.
[12] abbreviates: 10 mg/kg p.o., VAS 0.02 i.u./kg, 90 min.
[13] abbreviates: 10 mg/kg p.o., VAS 0.02 i.u./kg, 120 min.
The mark [14] stands for this setting: 10 mg/kg p.o., VAS 0.02 i.u./kg, 180 min.
Where [15] appears, read: 10 mg/kg p.o., VAS 0.02 i.u./kg, 240 min.
[16] abbreviates: 10 mg/kg i.v., VAS 0.01 i.u./kg, 30 min.
Setting [17] is: 10 mg/kg i.v., VAS 0.01 i.u./kg, 60 min.
Where [18] appears, read: 10 mg/kg i.v., VAS 0.01 i.u./kg, 90 min.
Where [19] appears, read: 10 mg/kg i.v., VAS 0.01 i.u./kg, 120 min.
[20] abbreviates: 10 mg/kg i.v., VAS 0.01 i.u./kg, 180 min.
Setting [21] is: 10 mg/kg i.v., VAS 0.01 i.u./kg, 240 min.
Where [22] appears, read: 10 mg/kg i.v., VAS 0.01 i.u./kg, 300 min.
Where [23] appears, read: 10 mg/kg i.v., VAS 0.02 i.u./kg, 30 min.
Setting [24] is: 10 mg/kg i.v., VAS 0.02 i.u./kg, 60 min.
[25] abbreviates: 10 mg/kg i.v., VAS 0.02 i.u./kg, 90 min.
The mark [26] stands for this setting: 10 mg/kg i.v., VAS 0.02 i.u./kg, 120 min.
The mark [27] stands for this setting: 10 mg/kg i.v., VAS 0.02 i.u./kg, 180 min.
[28] abbreviates: 10 mg/kg i.v., VAS 0.02 i.u./kg, 240 min.
Setting [29] is: 10 mg/kg i.v., VAS 0.02 i.u./kg, 300 min.

Consider `CN(C)CN(C(=O)c1ccc(Cl)cc1Cl)c1ccc(C(=O)N2Cc3cccn3Cc3ccccc32)cc1` [Example 490, N-[(Dimethylamino)methyl]-N-[4-(5H-pyrrolo[2,1-c][1,4]benzodiazepin-10(11H)-ylcarbonyl)phenyl]-2,4-dichlorobenzamide], for which, in assay [1], the IC50 is 300 nM and the inhibition at 10 µM worked out at 99%. In assay [2] (10 mg/kg i.v.), the “Max. % Inhibition” value came out at 74% and the “Time (of max. % inhibition)” value came to 90 min. Also, in assay [2] (10 mg/kg p.o.), the “Max. % Inhibition” value is recorded as 65% and the “Time (of max. % inhibition)” value was 120 min. In assay [3] (10 mg/kg orally), the Osmolality is 487 ± 38 mOsm/kg and the “Urine Volume” value is 71.5 ± 1.6 ml/4 hrs.
In assay [1], `Cc1cccc(C(=O)Nc2ccc(C(=O)N3Cc4cccn4Cc4ccccc43)c(Cl)c2)c1C` [Example 525, N-[4-(5H-pyrrolo[2,1-c][1,4]benzodiazepin-10(11H)-ylcarbonyl]-3-chlorophenyl]-2,3-dimethylbenzamide] yielded an IC50 of 280 nM and an inhibition at 10 µM of 98%. Moreover, in assay [2] (30 mg/kg i.v.), the “Max. % Inhibition” value is 70% and the “Time (of max. % inhibition)” value worked out at 60 min. In assay [3] (10 mg/kg orally), the Osmolality is reported as 557 mOsm/kg and the “Urine Volume” value was 13 ml/4 hrs.
Regarding `Cc1c(F)cccc1C(=O)Nc1ccc(C(=O)N2Cc3cccn3Cc3ccccc32)c(Cl)c1` [Example 481, N-[4-(5H-pyrrolo[2,1-c][1,4]benzodiazepin-10(11H)-ylcarbonyl)-3-chlorophenyl]-3-fluoro-2-methylbenzamide], in assay [1], the 50% inhibitory concentration (IC50) worked out at 240 nM and the inhibition at 10 µM came to 88%. For the same molecule, in assay [2] (30 mg/kg p.o.), the “Max. % Inhibition” value turned out to be 58% and the “Time (of max. % inhibition)” value came to 80 min. For the same molecule, in assay [3] (10 mg/kg orally), the Osmolality stood at 473 mOsm/kg and the “Urine Volume” value was 17.2 ml/4 hrs.
In assay [1], `NC(=O)CNC(C(=O)Nc1ccc(C(=O)N2Cc3cccn3Cc3ccccc32)cc1)c1ccccc1` (stereo not shown) [Example 585] displayed an IC50 of 4700 nM and an inhibition at 10 µM of 70%. In assay [2] (10 mg/kg i.v.), the “Max. % Inhibition” value was 56% and the “Time (of max. % inhibition)” value turned out to be 30 min. Moreover, in assay [3] (10 mg/kg orally), the Osmolality was found to be 1483 mOsm/kg and the “Urine Volume” value is on record as 3.3 ml/4 hrs.
For `Cc1ccccc1C(=O)Nc1ccc(C(=O)N2Cc3cccn3Cc3ccccc32)cc1Cl` [Example 530, N-[4-(5H-Pyrrolo[2,1-c][1,4]benzodiazepin-10(11H)-ylcarbonyl)-2-chlorophenyl]-2-methylbenzamide], in assay [1], the 50% inhibitory concentration (IC50) was 310 nM and the inhibition at 10 µM stood at 99%. In addition, in assay [2] (30 mg/kg i.v.), the “Max. % Inhibition” value was 89% and the “Time (of max. % inhibition)” value came out at 120 min. Besides, in assay [3] (10 mg/kg orally), the Osmolality came to 914 mOsm/kg and the “Urine Volume” value worked out at 6 ml/4 hrs.
As for `O=C(Nc1ccc(C(=O)N2Cc3cccn3Cc3ccccc32)cc1)c1cc(Cl)ccc1Cl` [Example 4, N-[4-(5H-pyrrolo[2,1-c][1,4]benzodiazepin-10(11H)-ylcarbonyl)phenyl]-2,5-dichlorobenzamide], the IC50 in assay [1] came to 660 nM. Testing at 10 µM in assay [1] gave an inhibition of 98%. Also, the “% Inhibition” value in assay [2] (setting [4]) is 6%; in assay [2] (setting [5]) it was 36%; in assay [2] (setting [6]), 19%; in assay [2] (setting [7]), 32%; in assay [2] (setting [8]), 25%; in assay [2] (setting [9]), 39%. Also, the “% Inhibition” value in assay [2] (setting [10]) is 27%; in assay [2] (setting [11]) it was 10%; in assay [2] (setting [12]) it was -5%; in assay [2] (setting [13]) it was -2%; in assay [2] (setting [14]) it was 11%; in assay [2] (setting [15]), 47%. In addition, the “Average Change” value in assay [2] (setting [4]) is given as 44.5; in assay [2] (setting [5]), 30.5; in assay [2] (setting [6]), 38.5; in assay [2] (setting [7]) it was 32.5; in assay [2] (setting [8]) it was 35.5; in assay [2] (setting [9]), 29. Besides, the “Average Change” value in assay [2] (setting [10]) is listed as 36; in assay [2] (setting [11]) it was 44.5; in assay [2] (setting [12]), 52; in assay [2] (setting [13]), 50.5; in assay [2] (setting [14]), 44; in assay [2] (setting [15]) it was 26. Besides, the Osmolality in assay [3] (1 mg/kg orally) came to 1129 mOsm/kg; in assay [3] (3 mg/kg orally), 646 ± 115 mOsm/kg; in assay [3] (10 mg/kg orally) it was 571 mOsm/kg. Also, the “Urine Volume” value is reported as 2 ml/4 hrs in assay [3] (1 mg/kg orally), 9.5 ± 1.2 ml/4 hrs in assay [3] (3 mg/kg orally) and 16.9 ml/4 hrs in assay [3] (10 mg/kg orally).
On to `O=C(Nc1ccc(C(=O)N2Cc3ccc(CO)n3Cc3ccccc32)cc1)c1ccc(Cl)cc1Cl` [Example 581, 2,4-Dichloro-N-[4-[[3-(hydroxymethyl)-5H-pyrrolo[2,1-c][1,4]benzodiazepin-10(11H)-yl]carbonyl]phenyl]benzamide], for which, in assay [1], the IC50 is 200 nM and testing at 10 µM gave an inhibition of 99%. Besides, in assay [2] (10 mg/kg i.v.), the “Max. % Inhibition” value turned out to be 94% and the “Time (of max. % inhibition)” value was determined as 30 min. For the same molecule, in assay [2] (30 mg/kg p.o.), the “Max. % Inhibition” value was 79% and the “Time (of max. % inhibition)” value is reported as 30 min. For the same molecule, in assay [3] (10 mg/kg orally), the Osmolality stood at 941 ± 219 mOsm/kg and the “Urine Volume” value was found to be 4 ± 1.2 ml/4 hrs.
Regarding `O=C(Nc1ccc(C(=O)N2Cc3cccn3Cc3ccccc32)cc1)c1ccccc1Cl` [Example 7], the IC50 in assay [1] is 130 nM. In assay [1], this molecule yielded an inhibition at 10 µM of 97%. The “% Inhibition” value in assay [2] (setting [16]) amounted to 87%; in assay [2] (setting [17]), 87%; in assay [2] (setting [18]) it was 82%; in assay [2] (setting [19]), 80%; in assay [2] (setting [20]), 63%; in assay [2] (setting [21]), 56%. For the same molecule, the “% Inhibition” value stood at 57% in assay [2] (setting [22]); 87% in assay [2] (setting [23]); 86% in assay [2] (setting [24]); 78% in assay [2] (setting [25]); 77% in assay [2] (setting [26]); 59% in assay [2] (setting [27]). Moreover, the “% Inhibition” value came to 46% in assay [2] (setting [28]) and 59% in assay [2] (setting [29]). Also, the “Average Change” value in assay [2] (setting [16]) came to 6; in assay [2] (setting [17]), 6; in assay [2] (setting [18]) it was 8.5; in assay [2] (setting [19]), 9.5; in assay [2] (setting [20]) it was 17.5; in assay [2] (setting [21]) it was 20.5. Also, the “Average Change” value in assay [2] (setting [22]) is 20; in assay [2] (setting [23]), 7.5; in assay [2] (setting [24]), 8; in assay [2] (setting [25]), 12.5; in assay [2] (setting [26]) it was 13; in assay [2] (setting [27]), 23. For the same molecule, the figures for the “Average Change” value in assay [2] (setting [28]) and in assay [2] (setting [29]) were 30.5 and 23, respectively. Further, the Osmolality in assay [3] (10 mg/kg orally) worked out at 780 mOsm/kg; in assay [3] (30 mg/kg orally), 815 mOsm/kg. Moreover, the results for the “Urine Volume” value in assay [3] (10 mg/kg orally) and in assay [3] (30 mg/kg orally) were 9 ml/4 hrs and 12.4 ml/4 hrs, respectively.

Values taken from patent US5624923A, “Tricyclic diazepine vasopressin antagonists and oxytocin antagonists” (priority 1995, dated 1997).
